The results in this text go back to ChEMBL document CHEMBL3991601, “The target landscape of clinical kinase drugs” (Science, 2017).

The target in assay [1] is T1, Phosphatidylinositol 5-phosphate 4-kinase type-2 alpha (Homo sapiens, UniProt P48426).
T1 sequence (P48426 whole entry): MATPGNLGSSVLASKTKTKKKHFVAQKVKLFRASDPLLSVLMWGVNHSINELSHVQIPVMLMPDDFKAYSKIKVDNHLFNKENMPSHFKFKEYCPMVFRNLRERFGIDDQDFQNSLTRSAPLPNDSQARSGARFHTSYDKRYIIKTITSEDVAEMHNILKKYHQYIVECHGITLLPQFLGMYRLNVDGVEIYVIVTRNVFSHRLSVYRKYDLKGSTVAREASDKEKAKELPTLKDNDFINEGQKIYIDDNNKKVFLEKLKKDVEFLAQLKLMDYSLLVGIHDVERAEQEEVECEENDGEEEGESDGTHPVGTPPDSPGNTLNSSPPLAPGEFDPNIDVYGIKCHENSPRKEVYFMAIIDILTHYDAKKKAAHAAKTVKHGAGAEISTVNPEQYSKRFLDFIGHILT

In assay [2] the target is Ribosomal protein S6 kinase alpha-6 (Homo sapiens, UniProt Q9UK32).
Ribosomal protein S6 kinase alpha-6, sequence (Q9UK32 whole entry): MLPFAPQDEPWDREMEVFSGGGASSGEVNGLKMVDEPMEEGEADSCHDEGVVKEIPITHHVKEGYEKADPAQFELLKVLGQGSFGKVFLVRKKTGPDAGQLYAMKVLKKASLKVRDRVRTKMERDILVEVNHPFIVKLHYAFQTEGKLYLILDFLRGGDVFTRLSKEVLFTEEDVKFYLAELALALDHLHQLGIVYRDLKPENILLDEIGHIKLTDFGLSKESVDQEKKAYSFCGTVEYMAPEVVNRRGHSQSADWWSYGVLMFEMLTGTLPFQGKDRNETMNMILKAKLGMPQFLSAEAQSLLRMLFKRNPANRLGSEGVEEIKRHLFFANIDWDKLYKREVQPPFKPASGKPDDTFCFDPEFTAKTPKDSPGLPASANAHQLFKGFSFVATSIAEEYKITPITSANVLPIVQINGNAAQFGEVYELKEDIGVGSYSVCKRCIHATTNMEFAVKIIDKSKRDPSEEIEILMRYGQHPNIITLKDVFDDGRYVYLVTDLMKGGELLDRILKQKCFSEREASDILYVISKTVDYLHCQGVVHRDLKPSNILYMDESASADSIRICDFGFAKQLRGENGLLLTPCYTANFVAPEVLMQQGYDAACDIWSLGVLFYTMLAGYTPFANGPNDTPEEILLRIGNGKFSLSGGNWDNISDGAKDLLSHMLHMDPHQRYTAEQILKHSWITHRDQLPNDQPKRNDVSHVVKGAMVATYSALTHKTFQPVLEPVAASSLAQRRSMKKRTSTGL
Assay [3] has as its target T2, Calcium/calmodulin-dependent protein kinase type IV (Homo sapiens, UniProt Q16566).
T2 sequence (Q16566 whole entry): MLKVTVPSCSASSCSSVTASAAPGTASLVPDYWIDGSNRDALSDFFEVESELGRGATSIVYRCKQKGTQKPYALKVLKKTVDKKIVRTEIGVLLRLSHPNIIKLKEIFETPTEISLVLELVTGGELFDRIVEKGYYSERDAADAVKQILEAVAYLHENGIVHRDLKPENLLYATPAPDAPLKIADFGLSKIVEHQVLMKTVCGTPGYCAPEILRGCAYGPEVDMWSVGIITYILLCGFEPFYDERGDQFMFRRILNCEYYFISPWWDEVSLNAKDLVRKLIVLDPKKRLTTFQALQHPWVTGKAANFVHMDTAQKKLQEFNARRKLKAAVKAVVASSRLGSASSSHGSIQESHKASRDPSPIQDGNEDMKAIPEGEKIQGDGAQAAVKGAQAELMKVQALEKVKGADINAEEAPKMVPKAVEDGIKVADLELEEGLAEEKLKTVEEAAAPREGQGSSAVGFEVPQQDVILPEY

A further assay concerns the target T3, ADP/ATP translocase 3 (Homo sapiens, UniProt P12236).
T3 sequence (P12236 whole entry): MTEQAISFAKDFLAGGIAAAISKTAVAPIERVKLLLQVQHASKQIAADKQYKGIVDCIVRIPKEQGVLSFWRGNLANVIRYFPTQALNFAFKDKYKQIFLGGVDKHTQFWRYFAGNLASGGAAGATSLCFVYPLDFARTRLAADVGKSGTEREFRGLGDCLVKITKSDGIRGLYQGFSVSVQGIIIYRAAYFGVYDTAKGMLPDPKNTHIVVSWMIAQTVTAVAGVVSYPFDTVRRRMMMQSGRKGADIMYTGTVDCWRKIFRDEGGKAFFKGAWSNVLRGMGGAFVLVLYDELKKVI

Assay [4] concerns the target RAC-alpha serine/threonine-protein kinase (Homo sapiens, UniProt P31749).
The target in assay [5] is T4, Ribosyldihydronicotinamide dehydrogenase [quinone] (Homo sapiens, UniProt P16083).
T4 sequence (P16083 whole entry): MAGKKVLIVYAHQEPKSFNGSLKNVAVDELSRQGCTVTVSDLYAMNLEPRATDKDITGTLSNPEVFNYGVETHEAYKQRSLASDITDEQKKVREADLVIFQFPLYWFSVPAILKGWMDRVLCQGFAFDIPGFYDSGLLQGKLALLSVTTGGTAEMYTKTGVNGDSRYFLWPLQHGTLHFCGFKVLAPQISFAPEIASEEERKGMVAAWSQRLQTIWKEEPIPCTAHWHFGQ

The target of the next assay is T5, dCTP pyrophosphatase 1 (Homo sapiens, UniProt Q9H773).
T5 sequence (Q9H773 whole entry): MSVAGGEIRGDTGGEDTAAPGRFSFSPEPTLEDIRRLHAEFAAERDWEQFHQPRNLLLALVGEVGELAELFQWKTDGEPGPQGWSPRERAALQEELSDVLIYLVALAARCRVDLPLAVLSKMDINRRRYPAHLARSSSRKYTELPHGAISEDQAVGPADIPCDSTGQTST

The target in assay [6] is T6, Serine/threonine-protein kinase D3 (Homo sapiens, UniProt O94806).
T6 sequence (O94806 whole entry): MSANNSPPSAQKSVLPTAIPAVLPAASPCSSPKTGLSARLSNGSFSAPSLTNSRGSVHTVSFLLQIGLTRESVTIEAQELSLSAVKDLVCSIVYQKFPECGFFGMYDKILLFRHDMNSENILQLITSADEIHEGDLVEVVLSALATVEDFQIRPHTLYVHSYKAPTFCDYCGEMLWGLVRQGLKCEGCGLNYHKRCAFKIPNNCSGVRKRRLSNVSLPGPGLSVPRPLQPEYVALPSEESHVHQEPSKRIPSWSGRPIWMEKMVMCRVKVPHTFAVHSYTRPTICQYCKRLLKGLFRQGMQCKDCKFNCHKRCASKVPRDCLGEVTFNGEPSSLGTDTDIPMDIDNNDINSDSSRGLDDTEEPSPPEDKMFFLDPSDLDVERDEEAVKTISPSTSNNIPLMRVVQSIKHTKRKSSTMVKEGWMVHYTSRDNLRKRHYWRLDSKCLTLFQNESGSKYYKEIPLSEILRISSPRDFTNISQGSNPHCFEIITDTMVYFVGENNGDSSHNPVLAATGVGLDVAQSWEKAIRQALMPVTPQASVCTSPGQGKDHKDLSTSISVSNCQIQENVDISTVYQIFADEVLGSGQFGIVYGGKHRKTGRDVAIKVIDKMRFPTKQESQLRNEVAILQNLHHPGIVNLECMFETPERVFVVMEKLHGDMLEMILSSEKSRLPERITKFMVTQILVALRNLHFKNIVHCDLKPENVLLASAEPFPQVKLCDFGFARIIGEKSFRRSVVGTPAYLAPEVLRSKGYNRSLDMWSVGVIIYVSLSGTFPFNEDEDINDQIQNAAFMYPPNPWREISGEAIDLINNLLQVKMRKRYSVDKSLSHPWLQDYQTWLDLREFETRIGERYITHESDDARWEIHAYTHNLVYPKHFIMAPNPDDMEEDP

A word on the Kd: it is the concentration at which binding is half-saturated.

SMILES strings stand for the structures. Structures can show the parent of a compound that is named as a salt. Active and inactive are the calls of the source.
Further: in the data inactive means no Kd found up to 30 µM.

RAC-alpha serine/threonine-protein kinase, sequence (P31749 whole entry): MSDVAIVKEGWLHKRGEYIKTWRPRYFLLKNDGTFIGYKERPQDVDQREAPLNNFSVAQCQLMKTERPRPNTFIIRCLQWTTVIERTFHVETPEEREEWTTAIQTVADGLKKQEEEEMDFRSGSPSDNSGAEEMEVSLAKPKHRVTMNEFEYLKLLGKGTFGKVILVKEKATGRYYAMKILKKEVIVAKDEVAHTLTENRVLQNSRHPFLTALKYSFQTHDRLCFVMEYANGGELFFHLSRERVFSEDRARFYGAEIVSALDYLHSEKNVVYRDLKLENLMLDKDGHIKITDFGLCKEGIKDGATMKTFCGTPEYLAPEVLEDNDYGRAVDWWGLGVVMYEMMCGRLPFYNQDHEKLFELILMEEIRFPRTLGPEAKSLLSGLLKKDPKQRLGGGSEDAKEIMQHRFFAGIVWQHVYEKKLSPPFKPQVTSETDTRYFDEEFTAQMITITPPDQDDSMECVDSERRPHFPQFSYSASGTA

In the case of `COc1cc([C@@H]2c3cc4c(cc3[C@H](O)[C@H]3COC(=O)[C@@H]23)OCO4)cc(OC)c1OC` [AXL-1717], the Kd (in assay [1]; in assay [2]; in assay [3]; on ADP/ATP translocase 3; in assay [4]; in assay [5]) was > 30 µM (inactive) in each case. Further, the Kd (at dCTP pyrophosphatase 1; in assay [6]) was > 30 µM (inactive) throughout.

On to `NC(=O)Nc1cc(-c2cccc(F)c2)sc1C(=O)N[C@H]1CCCNC1` [AZD-7762], for which the Kd in assay [1] is > 30 µM (inactive); in assay [2] it was 1.51 µM (active); in assay [3], > 30 µM (inactive); at ADP/ATP translocase 3, > 30 µM (inactive); in assay [4], > 30 µM (inactive); in assay [5] it was > 30 µM (inactive). Also, the Kd on dCTP pyrophosphatase 1 is > 30 µM (inactive); in assay [6] it was 2.14 µM (active).

For the compound `Cc1cc(C(=O)NOCCO)c(Nc2ccc(I)cc2F)n(C)c1=O` [AZD-8330], the Kd (in assay [1]; in assay [2]; in assay [3]; at ADP/ATP translocase 3; in assay [4]; in assay [5]) was > 30 µM (inactive) throughout. Besides, the Kd (at dCTP pyrophosphatase 1; in assay [6]) was > 30 µM (inactive) each time.

In the case of `Cn1cnc2c(F)c(Nc3ccc(Br)cc3F)c(C(=O)NOCCO)cc21` [BINIMETINIB], the Kd is > 30 µM (inactive) in assay [1]; > 30 µM (inactive) in assay [2]; > 30 µM (inactive) in assay [3]; > 30 µM (inactive) on ADP/ATP translocase 3; > 30 µM (inactive) in assay [4]; 14.7 µM (active) in assay [5]. Also, the Kd (at dCTP pyrophosphatase 1; in assay [6]) was > 30 µM (inactive) in each case.

For the compound `CCn1c(C(=O)N(C2CC2)C2CC2)cc2c3c(ncn3C)c(Nc3cc(C)n(C)n3)nc21` [BMS-911543], the Kd was > 30 µM (inactive) in assay [1]; > 30 µM (inactive) in assay [2]; > 30 µM (inactive) in assay [3]; > 30 µM (inactive) on ADP/ATP translocase 3; > 30 µM (inactive) in assay [4]; 5.86 µM (active) in assay [5]. Besides, the Kd (at dCTP pyrophosphatase 1; in assay [6]) was > 30 µM (inactive) each time.

For the compound `COc1cc2ncnc(Oc3cccc(NC(=O)Nc4cc(C(C)(C)C(F)(F)F)on4)c3)c2cc1OC` [CEP-32496], the Kd (in assay [1]; in assay [2]; in assay [3]; on ADP/ATP translocase 3; in assay [4]; in assay [5]) was > 30 µM (inactive) each time. Besides, the Kd (on dCTP pyrophosphatase 1; in assay [6]) was > 30 µM (inactive) throughout.

As to `Cc1cc(Nc2ncc(Cl)c(Nc3ccccc3S(=O)(=O)C(C)C)n2)c(OC(C)C)cc1C1CCNCC1` [CERITINIB], the Kd in assay [1] was > 30 µM (inactive); in assay [2], > 30 µM (inactive); in assay [3], 0.635 µM (active); at ADP/ATP translocase 3, > 30 µM (inactive); in assay [4] it was > 30 µM (inactive); in assay [5] it was > 30 µM (inactive). Moreover, the Kd (on dCTP pyrophosphatase 1; in assay [6]) was > 30 µM (inactive) each time.

Consider `COc1c(OCCCN2CCOCC2)ccc2c1N=C(NC(=O)c1cnc(N)nc1)N1CCN=C21` [COPANLISIB], for which the Kd (in assay [1]; in assay [2]; in assay [3]; at ADP/ATP translocase 3; in assay [4]; in assay [5]) was > 30 µM (inactive) throughout. The Kd (on dCTP pyrophosphatase 1; in assay [6]) was > 30 µM (inactive) throughout.

For the compound `COCC(=O)NC/C=C/c1ccc2ncnc(Nc3ccc(Oc4ccc(C)nc4)c(C)c3)c2c1` [CP-724714], the Kd (in assay [1]; in assay [2]; in assay [3]; at ADP/ATP translocase 3; in assay [4]; in assay [5]) was > 30 µM (inactive) throughout. Further, the Kd (at dCTP pyrophosphatase 1; in assay [6]) was > 30 µM (inactive) each time.

Turning to `C#Cc1cccc(Nc2ncnc3cc(OC)c(OCCCCCCC(=O)NO)cc23)c1` [CUDC-101], the Kd (in assay [1]; in assay [2]; in assay [3]; at ADP/ATP translocase 3; in assay [4]; in assay [5]) was > 30 µM (inactive) each time. The Kd (at dCTP pyrophosphatase 1; in assay [6]) was > 30 µM (inactive) throughout.

As for `CCS(=O)(=O)N1CCN(c2ccc(Nc3ncc(C(N)=O)c(NC4CC4)n3)cc2)CC1` [Cerdulatinib Hydrochloride], the Kd was > 30 µM (inactive) in assay [1]; 0.455 µM (active) in assay [2]; > 30 µM (inactive) in assay [3]; > 30 µM (inactive) on ADP/ATP translocase 3; > 30 µM (inactive) in assay [4]; > 30 µM (inactive) in assay [5]. For the same compound, the figures for the Kd (on dCTP pyrophosphatase 1; in assay [6]) were > 30 µM (inactive) and 1.06 µM (active), respectively.

As for `O=C(Nc1nc2cccc(-c3ccc(CN4CCS(=O)(=O)CC4)cc3)n2n1)C1CC1` [FILGOTINIB], the Kd (in assay [1]; in assay [2]; in assay [3]; at ADP/ATP translocase 3; in assay [4]; in assay [5]) was > 30 µM (inactive) throughout. In addition, the Kd (at dCTP pyrophosphatase 1; in assay [6]) was > 30 µM (inactive) in each case.

In the case of `Cc1cccc(-c2nn3c(c2-c2ccnc4ccc(C(N)=O)cc24)CCC3)n1` [GALUNISERTIB], the Kd (in assay [1]; in assay [2]; in assay [3]; at ADP/ATP translocase 3; in assay [4]; in assay [5]) was > 30 µM (inactive) each time. The Kd (at dCTP pyrophosphatase 1; in assay [6]) was > 30 µM (inactive) each time.
